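Five compound concentrations were applied to cells in 96-well plates for 48 hours; endpoints were derived by simple linear interpolation of the resulting dose-response curve. Abbreviation: GI50, concentration required for 50% inhibition of growth. TGI marks complete inhibition of growth.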
Columns and labels:
Assay in all cases: NCI-60 cell line screen, 48 h
[1] = tested on: SF-268 CNS
[2] = tested on: SK-MEL-28 melanoma
[3] = tested on: PC-3 prostate
[4] = tested on: COLO 205 colon
[5] = tested on: SF-295 CNS
[6] = tested on: SR leukemia
[7] = tested on: BT-549 breast
[8] = tested on: DU-145 prostate
[9] = tested on: OVCAR-4 ovarian
[10] = tested on: OVCAR-5 ovarian
[11] = tested on: SN12C renal
[12] = tested on: K-562 leukemia
[13] = tested on: SF-539 CNS
[14] = tested on: HOP-62 NSCLC
[15] = tested on: A549 NSCLC
[16] = tested on: NCI/ADR-RES ovarian
[17] = tested on: 786-0 renal
[18] = tested on: RXF 393 renal
[19] = tested on: HL-60(TB) leukemia
[20] = tested on: SK-OV-3 ovarian
[21] = tested on: HOP-92 NSCLC
[22] = tested on: SNB-19 CNS
[23] = tested on: SK-MEL-5 melanoma
[24] = tested on: UO-31 renal
[25] = tested on: MDA-MB-231 breast
[26] = tested on: T-47D breast
[27] = tested on: MALME-3M melanoma
[28] = tested on: HCT-116 colon
[29] = tested on: EKVX NSCLC
[30] = tested on: UACC-62 melanoma
[31] = tested on: UACC-257 melanoma
[32] = tested on: SK-MEL-2 melanoma
[33] = tested on: ACHN renal
[34] = tested on: M14 melanoma
[35] = tested on: RPMI-8226 leukemia
[36] = tested on: OVCAR-3 ovarian
[37] = tested on: CCRF-CEM leukemia
[38] = tested on: MDA-MB-435
[39] = tested on: HCC-2998 colon
[40] = tested on: HCT-15 colon
[41] = tested on: OVCAR-8 ovarian
[42] = tested on: NCI-H460 lung
[43] = tested on: NCI-H522 lung
[44] = tested on: IGROV1 ovarian
[45] = tested on: HT29 colon
[46] = tested on: NCI-H23 lung
[47] = tested on: CAKI-1 renal
[48] = tested on: U251 CNS
[49] = tested on: LOX IMVI melanoma
[50] = tested on: MOLT-4 leukemia
[51] = tested on: HS 578T breast
[52] = tested on: TK-10 renal
[53] = tested on: MCF7 breast
[54] = tested on: KM12 colon
[55] = tested on: SW-620 colon
[56] = tested on: NCI-H226 lung

O=S(=O)(Nc1ccc(I)c(Cl)c1)c1ccc(-c2cnc(C3CC3)o2)cc1
GI50 [1]: 3.15 µM | TGI [1]: 18.9 µM | GI50 [2]: 3.13 µM | TGI [2]: 19.9 µM | GI50 [3]: 1.12 µM | TGI [3]: 11.7 µM | GI50 [4]: 3.04 µM | TGI [4]: 15.6 µM | GI50 [5]: 0.362 µM | TGI [5]: 1.41 µM | GI50 [6]: 0.317 µM | TGI [6]: 17.7 µM | GI50 [7]: 1.37 µM | TGI [7]: 16 µM | GI50 [8]: 2.63 µM | TGI [8]: 11.8 µM | GI50 [9]: 3.3 µM | TGI [9]: 14.9 µM | GI50 [10]: 3.06 µM | TGI [10]: 13.3 µM | GI50 [11]: 3.17 µM | TGI [11]: 15.2 µM | GI50 [12]: 0.456 µM | TGI [12]: 27.4 µM | GI50 [13]: 1.26 µM | TGI [13]: 5.23 µM | GI50 [14]: 1.59 µM | TGI [14]: 17.6 µM | GI50 [15]: 1.57 µM | TGI [15]: 12.7 µM | GI50 [16]: 0.761 µM | TGI [16]: 6.82 µM | GI50 [17]: 2.57 µM | TGI [17]: 17.2 µM | GI50 [18]: 1.49 µM | TGI [18]: 7.55 µM | GI50 [19]: 0.461 µM | TGI [19]: 3.93 µM | GI50 [20]: 3.35 µM | TGI [20]: 17.6 µM | GI50 [21]: 0.434 µM | TGI [21]: 5.76 µM | GI50 [22]: 1.69 µM | TGI [22]: 17 µM | GI50 [23]: 2.7 µM | TGI [23]: 13.1 µM | GI50 [24]: 2.71 µM | TGI [24]: 15.5 µM | GI50 [25]: 3.96 µM | TGI [25]: 19.4 µM | GI50 [26]: 1.52 µM | TGI [26]: 16.2 µM | GI50 [27]: 1.5 µM | TGI [27]: 23 µM | GI50 [28]: 1.13 µM | TGI [28]: 11.9 µM | GI50 [29]: 2.85 µM | TGI [29]: 15.7 µM | GI50 [30]: 0.475 µM | TGI [30]: 12.8 µM | GI50 [31]: 3.74 µM | TGI [31]: 21.7 µM | GI50 [32]: 1.31 µM | TGI [32]: 16.7 µM | GI50 [33]: 3.03 µM | TGI [33]: 16.8 µM | GI50 [34]: 0.969 µM | TGI [34]: 12.3 µM | GI50 [35]: 2.61 µM | TGI [35]: 23.1 µM | GI50 [36]: 0.404 µM | TGI [36]: 2.89 µM | GI50 [37]: 0.877 µM | TGI [37]: 23.1 µM | GI50 [38]: 0.259 µM | TGI [38]: 0.817 µM | GI50 [39]: 2.37 µM | TGI [39]: 11.2 µM | GI50 [40]: 0.582 µM | TGI [40]: 12.3 µM | GI50 [41]: 3.08 µM | TGI [41]: 15.3 µM | GI50 [42]: 1.5 µM | TGI [42]: 10.2 µM | GI50 [43]: 0.557 µM | TGI [43]: 7.49 µM | GI50 [44]: 1.45 µM | TGI [44]: 16.6 µM | GI50 [45]: 0.994 µM | TGI [45]: 5.8 µM | GI50 [46]: 2.68 µM | TGI [46]: 14 µM | GI50 [47]: 0.658 µM | TGI [47]: 14.9 µM | GI50 [48]: 1.53 µM | TGI [48]: 12.6 µM | GI50 [49]: 2.64 µM | TGI [49]: 17.7 µM | GI50 [50]: 1.39 µM | TGI [50]: 22.5 µM | GI50 [51]: 0.416 µM | TGI [51]: 3.01 µM | GI50 [52]: 3.15 µM | TGI [52]: 17 µM | GI50 [53]: 0.454 µM | TGI [53]: 12 µM | GI50 [54]: 0.888 µM | TGI [54]: 12.4 µM | GI50 [55]: 0.65 µM | TGI [55]: 13.4 µM | GI50 [56]: 3.97 µM | TGI [56]: 18.9 µM

— PubChem BioAssay (NCI)
